In US20140135310A1, “SULPHONAMIDE DERIVATIVES OF ALICYCLIC AMINES FOR THE TREATMENT OF CENTRAL NERVOUS SYSTEM DISEASES” (Adamed Sp. z o.o., priority 2011, published 2014):
Like-named read-outs stand apart in the source and are kept apart here.

How the values were obtained:
Assay type in all cases: cell-based
[1] = biological target: 5-HT6 serotoninergic receptors (Homo sapiens, UniProt P50406); test: Cellular functional assay, 5-HT6 serotoninergic receptors; conditions: for 5-HT6 ag [%]: agonist mode, percent of control specific agonist response
5-HT6 serotoninergic receptors, sequence (P50406 whole entry): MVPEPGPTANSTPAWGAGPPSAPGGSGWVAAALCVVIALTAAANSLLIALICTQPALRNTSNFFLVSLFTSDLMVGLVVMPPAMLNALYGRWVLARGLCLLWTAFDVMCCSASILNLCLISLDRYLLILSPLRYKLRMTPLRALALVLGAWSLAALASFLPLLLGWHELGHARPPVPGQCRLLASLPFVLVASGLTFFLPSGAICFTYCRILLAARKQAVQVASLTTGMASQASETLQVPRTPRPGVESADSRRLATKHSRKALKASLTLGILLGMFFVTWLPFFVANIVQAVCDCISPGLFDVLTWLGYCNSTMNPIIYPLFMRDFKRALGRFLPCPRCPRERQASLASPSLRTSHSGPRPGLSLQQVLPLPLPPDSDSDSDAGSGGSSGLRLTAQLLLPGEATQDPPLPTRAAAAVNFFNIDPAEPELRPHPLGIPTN
Protocol: (§1) The results are expressed as a percent of control specific agonist response ((measured specific response/control specific agonist response)×100) obtained in the presence of the test compounds.
(§2) The EC50 values (concentration producing a half-maximal specific response) and IC50 values (concentration causing a half-maximal inhibition of the control specific agonist response) were determined by non-linear regression analysis of the concentration-response curves generated with mean replicate values using Hill equation curve fitting (Y=D+[(A−D)/(1+(C/C50)nH)], where Y=specific response, D=minimum specific response, A=maximum specific response, C=compound concentration, and C50=EC50 or IC50, and nH=slope factor). This analysis was performed using a software developed at Cerep (Hill software) and validated by comparison with data generated by the commercial software SigmaPlot® 4.0 for Windows® (© 1997 by SPSS Inc.).
(§3) For the antagonists, the apparent dissociation constants (Kb) were calculated using the modified Cheng Prusoff equation (Kb=IC50/(1+(A/EC50A)), where A=concentration of reference agonist in the assay, and EC50A=EC50 value of the reference agonist).

[2] = biological target: 5-HT2A serotoninergic receptors (Homo sapiens, UniProt P28223); test: Cellular functional assay, 5-HT2A serotoninergic receptors; conditions: for Kb: apparent dissociation constant, modified Cheng Prusoff equation, read-out: 5-HT2A antag Kb
5-HT2A serotoninergic receptors, sequence (P28223 whole entry): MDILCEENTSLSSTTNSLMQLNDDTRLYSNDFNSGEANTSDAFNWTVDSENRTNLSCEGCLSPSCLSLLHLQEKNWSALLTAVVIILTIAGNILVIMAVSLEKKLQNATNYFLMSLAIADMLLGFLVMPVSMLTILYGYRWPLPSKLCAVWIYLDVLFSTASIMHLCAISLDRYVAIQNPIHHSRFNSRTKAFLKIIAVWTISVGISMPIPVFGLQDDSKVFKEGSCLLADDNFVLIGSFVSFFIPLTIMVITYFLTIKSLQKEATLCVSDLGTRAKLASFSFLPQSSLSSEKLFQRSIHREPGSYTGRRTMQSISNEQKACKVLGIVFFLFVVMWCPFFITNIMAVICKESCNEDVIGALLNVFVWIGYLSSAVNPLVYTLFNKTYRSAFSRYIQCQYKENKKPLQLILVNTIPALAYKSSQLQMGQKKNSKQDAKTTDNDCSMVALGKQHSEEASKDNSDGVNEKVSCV
Protocol: as §1
as §2, with “factor).” for “factor). This analysis was performed using a software developed at Cerep (Hill software) and validated by comparison with data generated by the commercial software SigmaPlot® 4.0 for Windows® (© 1997 by SPSS Inc.).”
as §3

[3] = biological target: D3 dopaminergic receptors (Homo sapiens, UniProt P35462); test: Cellular functional assay, D3 dopaminergic receptors; conditions: for D3 ag [%]: agonism, percent of control specific agonist response (0.3 μM dopamine for control); for D3 ag [%] / D3 antag [%]: D3 (h), CHO cells; for D3 antag [%]: antagonism, stimulus dopamine (10 nM); for Kb: apparent dissociation constant, modified Cheng Prusoff equation, read-out: D3 antag Kb
D3 dopaminergic receptors, sequence (P35462 whole entry): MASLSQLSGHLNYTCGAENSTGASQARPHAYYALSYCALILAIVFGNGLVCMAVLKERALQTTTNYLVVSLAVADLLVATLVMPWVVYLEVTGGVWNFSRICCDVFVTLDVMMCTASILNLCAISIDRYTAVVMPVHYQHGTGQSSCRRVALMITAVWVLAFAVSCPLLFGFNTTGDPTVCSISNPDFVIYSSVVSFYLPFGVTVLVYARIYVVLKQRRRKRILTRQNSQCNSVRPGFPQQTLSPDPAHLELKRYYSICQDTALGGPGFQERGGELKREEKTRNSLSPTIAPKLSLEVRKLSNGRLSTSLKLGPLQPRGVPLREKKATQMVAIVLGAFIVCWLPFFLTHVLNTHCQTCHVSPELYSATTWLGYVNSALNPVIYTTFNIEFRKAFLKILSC
Protocol: as §1, §2, §3

[4] = biological target: 5-HT7 serotoninergic receptors (Homo sapiens, UniProt P34969); test: Cellular functional assay, 5-HT7 serotoninergic receptors; conditions: for 5-HT7 ag [%]: agonist mode, percent of control specific agonist response; for Kb: apparent dissociation constant, modified Cheng Prusoff equation, read-out: 5-HT7 antag Kb
5-HT7 serotoninergic receptors, sequence (P34969 whole entry): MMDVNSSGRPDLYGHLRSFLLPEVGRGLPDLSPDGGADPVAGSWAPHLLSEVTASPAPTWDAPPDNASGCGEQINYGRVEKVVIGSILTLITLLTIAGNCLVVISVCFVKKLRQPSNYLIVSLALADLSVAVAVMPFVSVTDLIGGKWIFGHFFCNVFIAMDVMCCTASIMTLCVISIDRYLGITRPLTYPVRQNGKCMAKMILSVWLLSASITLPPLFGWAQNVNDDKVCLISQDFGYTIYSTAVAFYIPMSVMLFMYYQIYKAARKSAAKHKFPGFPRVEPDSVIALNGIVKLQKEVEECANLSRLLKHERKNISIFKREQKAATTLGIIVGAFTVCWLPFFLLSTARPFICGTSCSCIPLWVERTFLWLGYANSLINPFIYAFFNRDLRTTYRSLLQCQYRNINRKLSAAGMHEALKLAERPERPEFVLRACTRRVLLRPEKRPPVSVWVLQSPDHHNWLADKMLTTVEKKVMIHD
Protocol: as §1, §2, §3

[5] = biological target: D2 dopaminergic receptors (Homo sapiens, UniProt P14416); test: Cellular functional assay, D2 dopaminergic receptors; conditions: for D2 ag [%]: agonism, percent of control specific agonist response (3 μM dopamine for control); for D2 ag [%] / D2 antag [%]: D2S (h), HEK-293 cells; for D2 antag [%]: antagonism, stimulus dopamine (30 nM); for Kb: apparent dissociation constant, modified Cheng Prusoff equation, read-out: D2 antag Kb
D2 dopaminergic receptors, sequence (P14416 whole entry): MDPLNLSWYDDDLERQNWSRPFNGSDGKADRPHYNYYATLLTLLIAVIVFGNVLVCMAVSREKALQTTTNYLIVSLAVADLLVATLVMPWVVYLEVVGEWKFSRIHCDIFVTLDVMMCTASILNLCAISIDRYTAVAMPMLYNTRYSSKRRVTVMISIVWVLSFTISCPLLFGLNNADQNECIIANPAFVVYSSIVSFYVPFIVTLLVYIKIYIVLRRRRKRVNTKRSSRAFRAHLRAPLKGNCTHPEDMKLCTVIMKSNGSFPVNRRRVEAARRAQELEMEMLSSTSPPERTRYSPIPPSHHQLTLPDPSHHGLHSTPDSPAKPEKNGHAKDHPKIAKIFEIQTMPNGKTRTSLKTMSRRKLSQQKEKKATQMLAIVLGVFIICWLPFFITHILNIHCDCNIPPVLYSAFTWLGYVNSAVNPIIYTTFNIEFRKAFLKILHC
Protocol: as §1, §2, §3

[6] = agonist mode, percent of control specific agonist response

Molecule | 5-HT6 ag [%] [1] [%] | 5-HT2A ag [%] [2] [%] | D3 ag [%] [3] [%] | D3 antag [%] [3] [%] | 5-HT7 ag [%] [4] [%] | D2 ag [%] [5] [%] | D2 antag [%] [5] [%] | Kb [2] [nM] | Kb [3] [nM] | Kb [4] [nM] | Kb [5] [nM] | 5-HT2A ag [%] [2, 6] [%] | 5-HT6 antag [%] ([1]; antagonist mode) | 5-HT7 antag [%] ([4]; antagonist mode) | Kb ([1]; apparent dissociation constant, modified Cheng Prusoff equation, read-out: 5-HT6 antag Kb) [nM]
O=S(=O)(NC1CCN(CCCc2noc3cc(F)ccc23)C1)c1cc2ccc(F)cc2s1 (stereo not drawn) [Compound 234, 6-Fluoro-N-[1-[3-(6-fluoro-1,2-benzoxazol-3-yl)propyl]pyrrolidin-3-yl]benzothiophene-2-sulphonamide] | −1 | 1 | −14 | 89 | 0 | 2 | 91 |  |  |  |  |  |  |  | 
O=S(=O)(NC1CCN(CCCc2noc3cc(F)ccc23)C1)c1ccc2ccccc2c1 (stereo not drawn) [Compound 21, N-[1-[3-(6-Fluoro-1,2-benzoxazol-3-yl)propyl]pyrrolidin-3-yl]naphthalene-2-sulphonamide] | 1 | 2 | −8 | 83 | −1 | 6 | 98 | 8.3 | 7.3 | 1.7 | 1.6 |  |  |  | 
Cc1ccc2sc(S(=O)(=O)NC3CCN(CCCc4noc5cc(F)ccc45)C3)cc2c1 (stereo not drawn) [Compound 226, N-[1-[3-(6-Fluoro-1,2-benzoxazol-3-yl)propyl]pyrrolidin-3-yl]-5-methylbenzothiophene-2-sulphonamide] | −5 |  | −26 | 107 | −2 | 0 | 87 |  |  |  |  | −1 |  |  | 
O=S(=O)(NCC1CCN(CCCc2noc3cc(F)ccc23)C1)c1cccc2ccccc12 (stereo not drawn) [Compound 239, N-[[1-[3-(6-Fluoro-1,2-benzoxazol-3-yl)propyl]pyrrolidin-3-yl]methyl]naphthalene-1-sulphonamide] | 2 | −2 |  |  | 1 | 2 | 56 |  |  |  |  |  |  |  | 
Cc1c(S(=O)(=O)N[C@@H]2CCN(CCCc3noc4cc(F)ccc34)C2)sc2ccc(Cl)cc12 [Compound 204, 5-Chloro-N-[(3R)-1-[3-(6-fluoro-1,2-benzoxazol-3-yl)propyl]pyrrolidin-3-yl]-3-methyl-benzothiophene-2-sulphonamide] | −1 |  | −8 | 109 |  | 1 | 86 |  |  |  |  | −1 |  |  | 
COc1ccc2cc(S(=O)(=O)N[C@H]3CCN(CCCc4noc5cc(F)ccc45)C3)ccc2c1 [Compound 231, N-[(3S)-1-[3-(6-Fluoro-1,2-benzoxazol-3-yl)propyl]pyrrolidin-3-yl]-6-methoxy-naphthalene-2-sulphonamide] |  |  | −6 | 54 |  | 13 | 49 |  |  |  |  | 0 |  |  | 
Cc1c(S(=O)(=O)N[C@@H]2CCN(CCCc3noc4cc(F)ccc34)C2)sc2ccc(F)cc12 [Compound 202, 5-Fluoro-N-[(3R)-1-[3-(6-fluoro-1,2-benzoxazol-3-yl)propyl]pyrrolidin-3-yl]-3-methyl-benzothiophene-2-sulphonamide] | 1 |  | −5 | 81 | −3 | 0 | 95 |  |  |  |  | 0 |  |  | 
Cc1c(S(=O)(=O)N[C@H]2CCN(CCCc3noc4cc(F)ccc34)C2)sc2ccc(Cl)cc12 [Compound 205, 5-Chloro-N-[(3S)-1-[3-(6-fluoro-1,2-benzoxazol-3-yl)propyl]pyrrolidin-3-yl]-3-methyl-benzothiophene-2-sulphonamide] | 1 |  | 7 | 95 | −1 | 3 | 61 |  |  |  |  | −3 |  |  | 
O=S(=O)(N[C@H]1CCN(CCCc2noc3cc(F)ccc23)C1)c1cc2ccccc2o1 [Compound 215, N-[(3S)-1-[3-(6-Fluoro-1,2-benzoxazol-3-yl)propyl]pyrrolidin-3-yl]benzo-furan-2-sulphonamide] | −2 |  |  |  | 0 | 6 | 91 |  |  |  |  | −2 |  |  | 
N-[1-[3-(6-Fluoro-1,2-benzoxazol-3-yl)propyl]pyrrolidin-3-yl]-1-methyl-imidazole-4-sulphonamide [Compound 217] | −6 |  |  |  | 5 | 10 | 79 |  |  |  |  | −2 | 85 | 74 | 
O=S(=O)(N[C@@H]1CCN(CCCc2noc3cc(F)ccc23)C1)c1cc2ccccc2s1 [Compound 196, N-[(3R)-1-[3-(6-Fluoro-1,2-benzoxazol-3-yl)propyl]pyrrolidin-3-yl]benzo-thiophene-2-sulphonamide] | −2 | 0 | −16 | 77 | 0 | 0 | 95 | 8.3 | 71 | 0.57 | 10 |  |  |  | 38
O=S(=O)(NC1CCN(CCCc2noc3cc(F)ccc23)C1)c1cc2ccccc2o1 (stereo not drawn) [Compound 216, N-[1-[3-(6-Fluoro-1,2-benzoxazol-3-yl)propyl]pyrrolidin-3-yl]benzofuran-2-sulphonamide] | −5 |  |  |  | −5 | 0 | 86 |  |  |  |  | −2 |  |  | 
O=S(=O)(N[C@H]1CCN(CCCc2noc3cc(F)ccc23)C1)c1cc2ccc(Cl)cc2s1 [Compound 199, 6-Chloro-N-[(3S)-1-[3-(6-fluoro-1,2-benzoxazol-3-yl)propyl]pyrrolidin-3-yl]benzothiophene-2-sulphonamide] | −3 |  |  |  | 1 | 4 | 46 |  |  |  |  | −2 |  |  | 
O=S(=O)(NC1CCN(CCCc2noc3cc(F)ccc23)CC1)c1cccc2ccccc12 [Compound 34, N-[1-[3-(6-Fluoro-1,2-benzoxazol-3-yl)propyl]-4-piperidine]-naphthalene-1-sulphonamide] |  | −1 |  |  | −1 |  |  |  |  | 0.077 |  |  |  |  | 
O=S(=O)(N[C@H]1CCN(CCCc2noc3cc(F)ccc23)C1)c1cc2ccccc2s1 [Compound 197, N-[(3S)-1-[3-(6-Fluoro-1,2-benzoxazol-3-yl)propyl]pyrrolidin-3-yl]benzo-thiophene-2-sulphonamide] | −1 | 1 |  |  | 0 | 1 | 82 |  |  |  |  |  |  |  | 
O=S(=O)(NCC1CCN(CCCc2noc3cc(F)ccc23)C1)c1ccc2ccccc2c1 (stereo not drawn) [Compound 240, N-[[1-[3-(6-Fluoro-1,2-benzoxazol-3-yl)propyl]pyrrolidin-3-yl]methyl]-naphthalene-2-sulphonamide] | 4 | −1 |  |  | 0 | 3 | 64 |  |  |  |  |  |  |  | 
